Consider five compounds from article PMC6216040, “Repurposing of an old drug: In vitro and in vivo efficacies of buparvaquone against Echinococcus multilocularis” (International Journal for Parasitology: Drugs and Drug …, 2018).

The subject of data set [1] is human foreskin fibroblasts (HFF). Also on record: method as in Stadelmann et al., 2016. To be noted: ref Stadelmann et al., 2016; cited from earlier work.
Another data set deals with E. granulosus. Details: method as in Kammerer and Perez-Esandi, 1975; Miyaji et al., 1993. To be noted: ref Kammerer and Perez-Esandi, 1975; Miyaji et al., 1993; cited from earlier work.
In data set [2] the test system is E. multilocularis metacestodes. Nature of the data set: PGI-assay: drug-induced damage on in vitro cultured metacestodes (Pathogen Box screening cascade and EC50). It is filed as cell-based, Echinococcus multilocularis. To be noted: for EC50: read-out: E. multilocularis EC50, PGI-assay, 5 days in vitro.
The test system of data set [3] is human foreskin fibroblasts (HFF). Nature of the data set: Cytotoxicity by Alamar Blue assay in human foreskin fibroblasts. To be noted: Homo sapiens, Fibroblast, 120 h.
Data set [4] concerns E. multilocularis metacestodes. The experiment in a line: Vesicle viability assay by Alamar Blue (MIC). It counts as cell-based, Echinococcus multilocularis. As to conditions: Alamar Blue vesicle viability assay, 12 days of incubation. The procedure: The setup was the same as for PGI-assay EC50 calculations and it was performed in triplicates. […] Data was used to calculate the minimal inhibitory concentrations (MICs) of these compounds on metacestodes.
(Resazurin is reduced to fluorescent resorufin, in cell work by metabolically active cells.)

Data set [5] has as its system Reuber rat hepatoma (RH) cells. The experiment in a line: Cytotoxicity by Alamar Blue assay in rat hepatoma cells. It counts as cell-based. To be noted: 120 h.
[6] abbreviates: Echinococcus multilocularis, 120 h, 10 µM, singlets, 5 days of incubation, read-out: PGI release, % of the Tx-100 control, 5d.
[7] abbreviates: Echinococcus multilocularis, 288 h, 10 µM, singlets, 12 days of incubation, read-out: PGI release, % of the Tx-100 control, 12d.

≈ marks a conversion by molar mass, not a printed value. Where two headings read alike, the source gives them in different places.

As to `O=C(Nc1cccc(C(F)(F)F)c1)c1cc(Cl)ccc1O` [MMV665807], the “toxicity against HFF” value in data set [1] was “did not exhibit any specific toxicity”.

As to `NCCC[C@](N)(C(=O)O)C(F)F` [MMV001625, alpha-Difluoromethylornithine, reference compound], the “effect in vivo against E. granulosus” value with E. granulosus is recorded as “did not show any effects”. For the same compound, in data set [2] (10 μM), the “activity in the present in vitro screen (threshold 20% relative activity compared to Tx-100)” value is “inactive”. In addition, the “PGI release, % of the Tx-100 control, 5d” value in data set [2] (10 µM, singlets, 5 days of incubation) was -0.43%. Moreover, the “PGI release, % of the Tx-100 control, 12d” value in data set [2] (10 µM, singlets, 12 days of incubation) was -0.93%.

As to `Cc1ccc(C(=O)Nc2ccc(S(=O)(=O)O)c3cc(S(=O)(=O)O)cc(S(=O)(=O)O)c23)cc1NC(=O)c1cccc(NC(=O)Nc2cccc(C(=O)Nc3cc(C(=O)Nc4ccc(S(=O)(=O)O)c5cc(S(=O)(=O)O)cc(S(=O)(=O)O)c45)ccc3C)c2)c1` [MMV637953, Suramin, reference compound], in the data set on E. granulosus, the “effect in vivo against E. granulosus” value is listed as “did not show any effects”. In data set [2] (10 μM), the “activity in the present in vitro screen (threshold 20% relative activity compared to Tx-100)” value is “inactive”. In addition, the cytotoxicity at 10 µM was determined as 0.85% in data set [2] (setting [6]) and 0.51% in data set [2] (setting [7]).

Regarding `N=C(N)c1ccc(OCCCCCOc2ccc(C(=N)N)cc2)cc1` [MMV000062, Pentamidine, reference compound], in the data set with E. granulosus, the “effect in vivo against E. granulosus” value is given as “did not show any effects”. For the same compound, the “activity in the present in vitro screen (threshold 20% relative activity compared to Tx-100)” value in data set [2] (10 μM) is “inactive”. Also, the cytotoxicity at 10 µM in data set [2] (setting [6]) was -1%; in data set [2] (setting [7]) it was -1.06%.

Broadly, the IC50 is the point on the concentration scale where inhibition reaches its midpoint. Broadly, the EC50 is the concentration needed to bring the measured effect to its halfway point. What is called MIC is the least concentration at which growth counts as inhibited. On to `Cc1[nH]c2cc(F)cc(F)c2c(=O)c1-c1ccc(Oc2ccc(OC(F)(F)F)cc2)cc1` [MMV671636, ELQ-400], for which the “activity against metacestodes at 1 μM” value in data set [2] (1 μM, triplicates) is given as “distinct in vitro activities”. Moreover, in data set [2] (1 µM, triplicates, 5 days of incubation), the “PGI release, % of Tx-100 control, average, 5d” value was determined as 56.00%. Moreover, in data set [2] (1 µM, triplicates, 12 days of incubation), the “PGI release, % of Tx-100 control, average, 12d” value worked out at 70.43%. Further, the “activity in the screen at 10 μM (confirmed in triplicates, >20% relative PGI release)” value in data set [2] (10 μM, 5 and 12 days) is recorded as “active”. The cytotoxicity at 10 µM in data set [2] (Echinococcus multilocularis, 120 h, read-out: PGI release, % of Tx-100 control, average, 5d) was determined as 5.44%; in data set [2] (Echinococcus multilocularis, 120 h, read-out: PGI release, % of the Tx-100 control, 5d), 6.52%; in data set [2] (Echinococcus multilocularis, 288 h, read-out: PGI release, % of Tx-100 control, average, 12d) it was 76.1%; in data set [2] (Echinococcus multilocularis, 288 h, read-out: PGI release, % of the Tx-100 control, 12d), 24%. In addition, the IC50 turned out to be 20 nM in data set [2] (Echinococcus multilocularis, read-out: IC50 against in vitro cultured E. multilocularis metacestodes); 74800 nM in data set [3] (read-out: HFF confluent IC50); 12300 nM in data set [3] (read-out: HFF preconfluent IC50); 2070 nM in data set [5] (read-out: RH confluent IC50); 250 nM in data set [5] (read-out: RH preconfluent IC50). The “toxicity against E. multilocularis metacestodes compared with host cells (HFF, RH)” value in data set [2] (comparison of EC50 with IC50 on mammalian cells) is given as “specific toxicity”. Besides, the EC50 was 20 nM in data set [2] and less than 1000 nM in data set [2] (listed as MMV671363). In addition, the “E. multilocularis MIC” value in data set [4] (listed as MMV671363) is listed as “below 1 μM”. Also, in data set [4] (read-out: E. multilocularis MIC), the MIC is reported as 0.01 µM (≈ 4.47 ng/mL).
